14 compounds from patent US6528494B2 (priority 1996, dated 2003) can be followed below.

Where a name gives a salt, the structure may show the parent alone.

Common to all, as to type: cell-based
In test [1] the target is T1, adenosine 3 receptor (Homo sapiens, UniProt P0DMS8).
T1 sequence (P0DMS8 1-318): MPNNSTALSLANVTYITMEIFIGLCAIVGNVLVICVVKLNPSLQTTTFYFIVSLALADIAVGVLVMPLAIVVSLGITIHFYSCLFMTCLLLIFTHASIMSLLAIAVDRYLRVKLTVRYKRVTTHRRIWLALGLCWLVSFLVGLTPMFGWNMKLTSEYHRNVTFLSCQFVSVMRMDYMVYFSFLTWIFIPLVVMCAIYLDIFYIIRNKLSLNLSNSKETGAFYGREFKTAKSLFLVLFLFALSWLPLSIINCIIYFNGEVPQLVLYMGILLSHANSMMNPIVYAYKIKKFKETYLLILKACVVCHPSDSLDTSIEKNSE
The test can be described thus: Agonist activity against adenosine 3 receptor (CHO cells, forskolin-enhanced cAMP/SPAP reporter). Particulars: CHO cells transfected with human receptor; forskolin-enhanced cAMP via SPAP; mean of all the versions tested. As to the method:
(§1) (1) Agonist activity against adenosine 2a, adenosine 1 and adenosine 3 receptor subtypes.
(§2) The effect of test compounds was determined by their effects on basal levels of cAMP (A2a) or on forskolin-enhanced cAMP (A1 and A3) as reflected by changes in levels of SPAP.

Test [2] addresses adenosine 2a receptor (Homo sapiens, UniProt P29274). Put plainly: Agonist activity against adenosine 2a receptor (CHO cells, cAMP/SPAP reporter). To be noted: CHO cells transfected with human receptor; basal cAMP via SPAP; mean of all the versions tested. The method, then: as §1, §2
Test [3] has as its target T2, adenosine 1 receptor (Homo sapiens, UniProt P30542).
T2 sequence (P30542 1-326): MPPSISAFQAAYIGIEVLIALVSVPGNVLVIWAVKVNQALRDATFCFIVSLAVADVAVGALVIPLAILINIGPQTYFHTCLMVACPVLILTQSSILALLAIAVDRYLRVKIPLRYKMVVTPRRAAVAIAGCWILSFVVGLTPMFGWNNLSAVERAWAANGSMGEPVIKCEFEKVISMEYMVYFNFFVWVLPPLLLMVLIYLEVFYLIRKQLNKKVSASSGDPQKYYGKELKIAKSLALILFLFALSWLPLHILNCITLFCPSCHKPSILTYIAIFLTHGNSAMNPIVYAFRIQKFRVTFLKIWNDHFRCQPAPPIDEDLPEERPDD
Put plainly: Agonist activity against adenosine 1 receptor (CHO cells, forskolin-enhanced cAMP/SPAP reporter). To be noted: CHO cells transfected with human receptor; forskolin-enhanced cAMP via SPAP; mean of all the versions tested. As to the method:
as §1, §2

adenosine 2a receptor, sequence (P29274 whole entry): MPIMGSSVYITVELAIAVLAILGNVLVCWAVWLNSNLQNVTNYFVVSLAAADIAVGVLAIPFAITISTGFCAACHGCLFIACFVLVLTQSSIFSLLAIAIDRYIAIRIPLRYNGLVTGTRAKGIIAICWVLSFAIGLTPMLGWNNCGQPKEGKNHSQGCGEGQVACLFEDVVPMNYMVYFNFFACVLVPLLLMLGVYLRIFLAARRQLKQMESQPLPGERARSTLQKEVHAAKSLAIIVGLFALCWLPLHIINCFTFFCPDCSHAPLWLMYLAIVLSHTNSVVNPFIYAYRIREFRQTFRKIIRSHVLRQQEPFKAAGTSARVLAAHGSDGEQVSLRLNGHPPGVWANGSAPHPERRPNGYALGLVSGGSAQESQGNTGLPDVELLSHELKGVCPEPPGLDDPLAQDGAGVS

For the compound `CCn1nnc(C2OC(n3cnc4c(NCCN5CCCCC5)nc(NC(CO)Cc5ccccc5)nc43)C(O)C2O)n1` [Example 69, (2R,3S,4R,5R)-2-(2-Ethyl-2H-tetrazol-5-yl)-5-[2-(1S-hydroxymethyl-2-phenyl-ethylamino)-6-(2-piperidin-1-yl-ethylamino)-purin-9-yl]-tetrahydro-furan-3,4-diol Formate], the “A3 EC50 as a ratio of that of NECA” value in test [1] is greater than 148. Further, the “A2a EC50 as a ratio of that of NECA” value in test [2] turned out to be 6.60. In addition, the “A1 EC50 as a ratio of that of NECA” value in test [3] came to 515.30.
In the case of `CCC(CC)Nc1nc(NCCN2CCOCC2)nc2c1ncn2C1OC(c2nnn(C(C)C)n2)C(O)C1O.O=CO.O=CO` [Example 70, (2R,3R,4S,5R)-2-[6-(1-Ethyl-propylamino)-2-(2-morpholin-4-yl-ethylamino)-purin-9-yl]-5-(2-isopropyl-2H-tetrazol-5-yl)-tetrahydro-furan-3,4-diol Diformate], the “A3 EC50 as a ratio of that of NECA” value in test [1] was greater than 405. The “A2a EC50 as a ratio of that of NECA” value in test [2] was determined as 7.24. The “A1 EC50 as a ratio of that of NECA” value in test [3] worked out at 30.55.
Take `CCn1nnc(C2OC(n3cnc4c(NC5CCCC5)nc(NC(CO)Cc5ccccc5)nc43)C(O)C2O)n1` [Example 71, (2R,3R,4S,5R)-2-[6-Cyclopentylamino-2-(1S-hydroxymethyl-2-phenyl-ethylamino)-purin-9-yl]-5-(2-ethyl-2H-tetrazol-5-yl)-tetrahydro-furan-3,4-diol Formate]: the “A3 EC50 as a ratio of that of NECA” value in test [1] is greater than 158. Further, in test [2], the “A2a EC50 as a ratio of that of NECA” value is given as 1.99. For the same compound, the “A1 EC50 as a ratio of that of NECA” value in test [3] stood at 14.78.
Consider `CCn1nnc(C2OC(n3cnc4c(NCCC5CCCCC5)nc(NC5CCNC5)nc43)C(O)C2O)n1` [Example 72, (2R,3R,4S,5R)-2-[6-(2-Cyclohexyl-ethylamino)-2-(pyrrolidin-3R-ylamino)-purin-9-yl]-5-(2-ethyl-2H-tetrazol-5-yl)-tetrahydro-furan-3,4-diol Diformate], for which the “A3 EC50 as a ratio of that of NECA” value in test [1] was greater than 158. The “A2a EC50 as a ratio of that of NECA” value in test [2] is listed as 6.48. Also, in test [3], the “A1 EC50 as a ratio of that of NECA” value is recorded as 848.50.
For the compound `CCn1nnc(C2OC(n3cnc4c(NCCC5CCCCC5)nc(NC5CCNC5)nc43)C(O)C2O)n1` [Example 73, (2R,3R,4S,5R)-2-[6-(2-Cyclohexyl-ethylamino)-2-(pyrrolidin-3S-ylamino)-purin-9-yl]-5-(2-ethyl-2H-tetrazol-5-yl)-tetrahydro-furan-3,4-diol bis(Formate)], the “A3 EC50 as a ratio of that of NECA” value in test [1] is greater than 171. Moreover, the “A2a EC50 as a ratio of that of NECA” value in test [2] amounted to 5.75. Also, the “A1 EC50 as a ratio of that of NECA” value in test [3] came to 818.40.
Taken in the same sequence, the figures for `CCn1nnc(C2OC(n3cnc4c(NCCc5ccccc5)nc(NC5CCNC5)nc43)C(O)C2O)n1` [Example 74, (2R,3S,4R,5R)-2-(2-Ethyl-2H-tetrazol-5-yl)-5-[6-phenethylamino-2-(pyrrolidin-3R-ylamino)-purin-9-yl]-tetrahydro-furan-3,4-diol bis(Formate)] were greater than 171, 2.79 and 201.70.
For the compound `CCn1nnc(C2OC(n3cnc4c(NCCc5ccccc5)nc(NC5CCN(Cc6ccccc6)C5)nc43)C(O)C2O)n1.O=CO.O=CO` [Example 75, (2R,3R,4S,5R)-2-[2-(1-Benzyl-pyrrolidin-3-ylamino)-6-phenethylamino-purin-9-yl]-5-(2-ethyl-2H-tetrazol-5-yl)-tetrahydro-furan-3,4-diol bis(Formate)], in test [1], the “A3 EC50 as a ratio of that of NECA” value is greater than 174. For the same compound, the “A2a EC50 as a ratio of that of NECA” value in test [2] came to 1.40. The “A1 EC50 as a ratio of that of NECA” value in test [3] amounted to 121.50.
In the same order, the values of `CCn1nnc(C2OC(n3cnc4c(NCc5cccc(I)c5)nc(NC5CCNC5)nc43)C(O)C2O)n1` [Example 76, (2R,3S,4R,5R)-2-(2-Ethyl-2H-tetrazol-5-yl)-5-[6-(3-iodo-benzylamino)-2-(pyrrolidin-3S-ylamino)-purin-9-yl]-tetrahydro-furan-3,4-diol bis(Formate)] are greater than 155, 2.93 and 215.30.
In the case of `CCn1nnc(C2OC(n3cnc4c(NCc5cccc(I)c5)nc(NC5CCN(Cc6ccccc6)C5)nc43)C(O)C2O)n1.O=CO.O=CO` [Example 77, (2R,3R,4S,5R)-2-[2-(1-Benzyl-pyrrolidin-3-ylamino)-6-(3-iodo-benzylamino)-purin-9-yl]-5-(2-ethyl-2H-tetrazol-5-yl)-tetrahydro-furan-3,4-diol bis(Formate)], in test [1], the “A3 EC50 as a ratio of that of NECA” value is recorded as greater than 200. Further, the “A2a EC50 as a ratio of that of NECA” value in test [2] was determined as 3.30. Besides, in test [3], the “A1 EC50 as a ratio of that of NECA” value came out at 101.30.
In the same order, the values of `CCn1nnc(C2OC(n3cnc4c(NCCc5ccccc5)nc(NC(CO)Cc5ccccc5)nc43)C(O)C2O)n1` [Example 79, (2R,3S,4R,5R)-2-(2-Ethyl-2H-tetrazol-5-yl)-5-[2-(1S-hydroxymethyl-2-phenyl-ethylamino)-6-phenethylamino-purin-9-yl]-tetrahydro-furan-3,4-diol Formate] are greater than 155, 2.40 and 165.30.
Taken in the same sequence, the figures for `CC(C)n1nnc(C2OC(n3cnc4c(NC5CCCC5)nc(NCCN5CCCCC5)nc43)C(O)C2O)n1` [Example 80, (2R,3R,4S,5R)-2-[6-Cyclopentylamino-2-(2-piperidin-1-yl-ethylamino)-purin-9-yl]-yl)-5-(2-isopropyl-2H-tetrazol-5-yl)-tetrahydro-furan-3,4-diol bis(Formate)] were greater than 164, 2.37 and 77.10.
Taken in the same sequence, the figures for `CC(C)n1nnc(C2OC(n3cnc4c(NC5CCCC5)nc(NCCN5CCCC5)nc43)C(O)C2O)n1.O=CO.O=CO` [Example 81, (2R,3R,4S,5R)-2-[6-Cyclopentylamino-2-(2-pyrrolidin-1-yl-ethylamino)-purin-9-yl]-5-(2-isopropyl-2H-tetrazol-5-yl)-tetrahydro-furan-3,4-diol Diformate] were greater than 156, 4.77 and 89.11.
`CCn1nnc(C2OC(n3cnc4c(NCC(c5ccccc5)c5ccccc5)nc(NCCNC(=N)N)nc43)C(O)C2O)n1` (stereo not drawn) [Example 82, N-(2-{6-(2,2-Diphenyl-ethylamino)-9-[5R-(2-ethyl-2H-tetrazol-5-yl)-3R,4S-Dihydroxy-tetrahydro-furan-2R-yl]-9H-purin-2-ylamino}-ethyl)-guanidine bis(Trifluoroacetate)]: the “A3 EC50 as a ratio of that of NECA” value in test [1] is recorded as greater than 189. Moreover, the “A2a EC50 as a ratio of that of NECA” value in test [2] is 5.56. The “A1 EC50 as a ratio of that of NECA” value in test [3] worked out at 520.50.
In the same order, the values of `CCn1nnc([C@H]2O[C@@H](n3cnc4c(NCC(c5ccccc5)c5ccccc5)nc(NCCN)nc43)[C@H](O)[C@@H]2O)n1` [Example 83, (2R,3R,4S,5R)-2-[2-(2-Amino-ethylamino)-6-(2,2-diphenyl-ethylamino)-purin-9-yl]-5-(2-ethyl-2H-tetrazol-5-yl)-tetrahydro-furan-3,4-diol] are greater than 362, 4.82 and 130.10.
